These results are taken from US7998937B2, “Flavonoid compound having an antiviral activity” (Korea Research Institute of Bioscience and Biotechnology, priority 2005, dated 2011).

For data set [1], the system named is rhinovirus (strain: rhinovirus 2). Kind of data set: Inhibitory activity against rhinovirus in HeLa cells (SRB). To be noted: for inhibition at 10 µg/mL: Enterovirus, HeLa, 48 h, read-out: Inhibitory activity (%) (Mean ± S.D.). Format: cell-based. The protocol: In order to evaluate the inhibitory activity of quercetin-7-rhamnoside against rhino virus, the following in vitro test was performed using HeLa, one of human cervical cancer cell lines, cells. Inhibitory activity of quercetin-7-rhamnoside against viral proliferation was measured by the method proposed by Kwon Dur-Han, et al. (Korean Patent Publication No. 2004-101863). […] HeLa cells were cultured on a 96-well microplate until the bottom of each well was completely covered with cells. Remaining culture medium was removed and each well was washed twice with a phosphate buffer. A rhino virus solution adjusted to a concentration of TCID 50 was added to each well. […] After 48 hours, the HeLa cells were observed under a microscope. After adding 100 μL of 70% acetone, each well was kept at −20° C. for 1 hour. After drying in a desiccator, 100 μL of 0.4% (w/v) SRB (sulforhodamine B) solution dissolved in 1% (v/v) acetic acid was added. After 30 minutes of staining, the SRB solution not bound to the cells was washed off with 1% (v/v) acetic acid for 4 times. After drying, 100 μL of 10 mM Tris solution (pH 10.5) was added to each well to dissolve the stained substance at the bottom of the well. Light absorbance was measured at 562 nm to evaluate the antiviral activity. As control group, viability of cells treated with DMSO only was compared with those treated with both DMSO and virus. Each test was repeated for 3 times.

Data set [2] concerns porcine epidemic diarrhea virus (PEDV). Kind of data set: Antiviral activity against PEDV in Vero cells (SRB staining). To be noted: for IC50 (concentration required for 50% inhibition of viruses) / Inhibitory activity (TI = CC50/IC50): PEDV in Vero cells, 48 hours; for IC50 (concentration required for 50% inhibition of viruses): maximum dosage 100 μg/mL; for IC50: Porcine epidemic diarrhea virus, Vero, 48 h, read-out: IC50 (concentration required for 50% inhibition of viruses); for Inhibitory activity (TI = CC50/IC50): 0.1-100 μg/mL. A general note: Sulforhodamine B stains cellular protein and so reports cell mass.

In data set [3] the test system is porcine transmissible gastroenteritis virus (TGEV). In words: Anti-coronavirus inhibitory activity against TGEV in ST cells. Particulars: for inhibitory activity against TGEV (in words): 0.1-100 μg/mL, 48 hours. In kind it is cell-based. The protocol: (§1) Antiviral activity of quercetin-7-rhamnoside against porcine transmissible gastroenteritis virus (TGEV) and porcine respiratory coronavirus (PRCV), another kind of coronaviruses, was evaluated. ST cells were cultured on a 96-well microplate until the bottom of each well was completely covered with cells. Remaining culture medium was completely removed and each well was washed twice with a phosphate buffer. TGEV or PRCV solution adjusted to a concentration of TCID50 was added to each well. Each of quercetin-7-rhamnoside, conventional antiviral agents purchased from Sigma-ribavirin, lamivudine, azidovudine, acycloguanine and glycyrrhizhin-dissolved in dimethyl sulfoxide was added to each well to a final concentration of 0.1-100 μg/mL. […] Similarly to the aforesaid evaluation of antiviral inhibitory activity against PEDV, c ells treated with DMSO only and those treated with both DMSO and TGEV or both DMSO and PRCV were used as control groups.

For data set [4], the system named is porcine respiratory coronavirus (PRCV). In words: Anti-coronavirus inhibitory activity against PRCV in ST cells. Format: cell-based. To be noted: for inhibitory activity against PRCV (in words): 0.1-100 μg/mL, 48 hours. The protocol:
as §1

Another data set has as its system rotavirus (strain: OSU). In words: Inhibitory activity against rotavirus in MA104 cells (SRB). Format: cell-based. To be noted: read-out: Inhibitory activity (%) (Mean ± S.D.). The protocol: In order to evaluate the inhibitory activity of quercetin-7-rhamnoside against rota virus, the following in vitro test was performed using MA014 cells derived from […] kidney. Inhibitory activity of quercetin-7-rhamnoside against viral proliferation was measured by the method proposed by Kwon Dur-Han, et al. (Korean Patent Publication No. 2004-101863). Inhibitory activity against rotavirus (strain: OSU) was measured. MA104 cells were cultured on a 96-well microplate until the bottom of each well was completely covered with cells. Remaining culture medium was removed and each well was washed twice with a phosphate buffer. A rota virus solution adjusted to a concentration of TCID 50 was added to each well. […] After 48 hours, the MA104 cells were observed under a microscope. After adding 100 μL of 70% acetone, each well was kept at −20° C. for 1 hour. After drying in a desiccator, 100 μL of 0.4% (w/v) SRB (sulforhodamine B) solution dissolved in 1% (v/v) acetic acid was added. After 30 minutes of staining, the SRB solution not bound to the cells was washed off with 1% (v/v) acetic acid for 4 times. After drying, 100 μL of 10 mM Tris solution (pH 10.5) was added to each well to dissolve the stained substance at the bottom of the well. Light absorbance was measured at 562 nm to evaluate the antiviral activity. As control group, viability of cells treated with DMSO only was compared with those treated with both DMSO and virus. Each test was repeated for 2 times.

Data set [5] relates to influenza type A (H1N1/WS/33) virus. In words: Antiviral activity against influenza type A virus in MDCK cells (SRB). In kind it is cell-based, influenza virus type A (H1N1; WS/33 strain). Particulars: Influenza A virus; 10 μg/mL, influenza A H1N1/WS/33 in MDCK cells, 48 hours, repeated 3 times; read-out: Inhibitory activity (%) (Mean ± S.D.). The protocol: In order to evaluate the inhibitory activity of quercetin-7-rhamnoside against influenza virus, the following in vitro test was performed using MDCK cells derived from dog kidney.
Inhibitory activity of quercetin-7-rhamnoside against viral proliferation was measured by the method proposed by Kwon Dur-Han, et al. (Korean Patent Application No. 2004-101863). Inhibitory activity against influenza virus type A (H1N1; WS/33 strain) was measured. MDCK cells were cultured on a 96-well microplate until the bottom of each well was completely covered with cells. Remaining culture medium was completely removed and each well was washed twice with a phosphate buffer. Each of quercetin-7-rhamnoside; conventional antiviral agents purchased from Sigma-ribavirin and amantadine; oseltamivir (trade name: Tamiflu) purchased from Roche; and zanamivir (trade name: Relenza) purchased from Glaxo Wellcome; dissolved in dimethyl sulfoxide was added to each well to a final concentration of 10 μg/mL. […] After adding 100 μL of 70% acetone, each well was kept at −20° C. for 1 hour. After drying in a desiccator, 100 μL of 0.4% (w/v) SRB (sulforhodamine B) solution dissolved in 1% (v/v) acetic acid was added. After 30 minutes' staining, the SRB staining solution not bound to the cells was washed off with 1% (v/v) acetic acid for 4 times. After drying, 100 μL of 10 mM Tris solution (pH 10.5) was added to each well to dissolve the stained substance at the bottom of the well. Light absorbance was measured at 562 nm to evaluate the antiviral activity. As control group, viability of cells treated with DMSO only was compared with those treated with both DMSO and virus. Each test was repeated 3 times.

Data set [6] deals with influenza type B (B/Lee/40) virus. Kind of data set: Inhibitory activity against influenza type B virus in MDCK cells (SRB). In kind it is cell-based. To be noted: Influenza B virus, read-out: Inhibitory activity (%) (Mean ± S.D.).
The nature of data set [7]: in vitro. Particulars: African green monkey.
Data set [8] is described as follows: in vitro. To be noted: pig.
[9] abbreviates: 10 μg/mL, rhinovirus 2 in HeLa cells, 48 hours, repeated 3 times.
The mark [10] stands for this setting: 10 μg/mL, rotavirus OSU in MA104 cells, 48 hours, repeated 2 times.
Setting [11] is: Alphacoronavirus 1, 48 hours, read-out: IC50.
Setting [12] is: 10 μg/mL, influenza B/Lee/40 in MDCK cells, 48 hours, repeated 3 times.

Converted amounts (≈) assume the structure as drawn. Read-outs that look alike come from different tables or passages of the source.

`O=c1c(-c2ccc(O)cc2)coc2cc(O[C@@H]3O[C@H](CO)[C@@H](O)[C@H](O)[C@H]3O)cc(O)c12` [Genistin, genistin]: in data set [1] (setting [9]), the inhibition at 10 µg/mL came to 13%. In data set [2], the “IC50 (concentration required for 50% inhibition of viruses)” value is “IC50 not attained even at the maximum dosage” and the IC50 is > 100 µg/mL.
As to `CC1(C)[C@@H](O[C@H]2O[C@H](C(=O)O)[C@@H](O)[C@H](O)[C@H]2O[C@@H]2O[C@H](C(=O)O)[C@@H](O)[C@H](O)[C@H]2O)CC[C@]2(C)[C@H]3C(=O)C=C4[C@@H]5C[C@@](C)(C(=O)O)CC[C@]5(C)CC[C@@]4(C)[C@]3(C)CC[C@@H]12` [Glycyrrhizin, glycyrrhizin], in [3], the “inhibitory activity against TGEV (in words)” value is “no inhibitory activity”. For the same molecule, the “inhibitory activity against PRCV (in words)” value in data set [4] was “no inhibitory activity”. The inhibition at 10 µg/mL in the data set with rotavirus (strain: OSU) (Rotavirus, MA104, 48 h) came out at 0.49%.
`NC12CC3CC(CC(C3)C1)C2` [Amantadine, amantadine]: the inhibition at 10 µg/mL in data set [5] is 14.6%; in [6] (MDCK, 48 h), -1.85%.
In the case of `Nc1ccn([C@@H]2CS[C@H](CO)O2)c(=O)n1` [Lamivudine, lamivudine], the “inhibitory activity against TGEV (in words)” value in [3] was “no inhibitory activity”. In addition, in data set [4], the “inhibitory activity against PRCV (in words)” value is listed as “no inhibitory activity”. In addition, in the data set on rotavirus (strain: OSU) (setting [10]), the inhibition at 10 µg/mL stood at 0.02%. Also, the IC50 in [2] was > 100 µg/mL.
On to catechin, for which the “Inhibitory activity (%) (Mean ± S.D.)” value in [1] (setting [9]) is given as 11.21%. In data set [2], the “Inhibitory activity (TI = CC50/IC50)” value is reported as > 9.0 and the “IC50 (concentration required for 50% inhibition of viruses)” value turned out to be 11.1 µg/mL. Further, the “Inhibitory activity (TI = CC50/IC50)” value in data set [2] (listed as catechin) is recorded as 9.0.
Regarding `O=c1c(O)c(-c2ccc(O)c(O)c2)oc2cc(O)cc(O)c12` [Quercetin, quercetin], in data set [1] (setting [9]), the inhibition at 10 µg/mL was 9.87%. The CC50 at 48 h in “in vitro [7]” came to 365 µg/mL (≈ 1210 µM). For the same molecule, the IC50 in data set [2] came out at 10.7 µg/mL (≈ 35.4 µM).
Take `O=c1cc(-c2ccc(O)c(O)c2)oc2cc(O)cc(O)c12` [Luteolin, luteolin]: the inhibition at 10 µg/mL in [1] (setting [9]) was found to be 21.8%. In addition, the IC50 in data set [2] was found to be 0.21 µg/mL (≈ 0.734 µM).
Consider `C[C@@H]1O[C@@H](OC[C@H]2O[C@@H](Oc3c(-c4ccc(O)c(O)c4)oc4cc(O)cc(O)c4c3=O)[C@H](O)[C@@H](O)[C@@H]2O)[C@H](O)[C@H](O)[C@H]1O` [Rutin, rutin], for which the inhibition at 10 µg/mL in data set [1] (setting [9]) was determined as 25.7%. The IC50 in [2] was > 100 µg/mL.
For `COc1ccc([C@@H]2CC(=O)c3c(O)cc(O[C@@H]4O[C@H](CO[C@@H]5O[C@@H](C)[C@H](O)[C@@H](O)[C@H]5O)[C@@H](O)[C@H](O)[C@H]4O)cc3O2)cc1O` [Hesperidin, hesperidin], in [1] (setting [9]), the “Inhibitory activity (%) (Mean ± S.D.)” value is 3.12%. Moreover, the “IC50 (concentration required for 50% inhibition of viruses)” value in data set [2] is “IC50 not attained even at the maximum dosage”.
In the case of `Nc1nc2c(ncn2COCCO)c(=O)[nH]1` [Acycloguanine, acycloguanine], the “inhibitory activity against TGEV (in words)” value in data set [3] is listed as “no inhibitory activity”. Moreover, in data set [4], the “inhibitory activity against PRCV (in words)” value was “no inhibitory activity”. In the data set on rotavirus (strain: OSU) (setting [10]), the inhibition at 10 µg/mL stood at 0.78%. Besides, in [2], the “IC50 (concentration required for 50% inhibition of viruses)” value is on record as “IC50 not attained even at the maximum dosage” and the IC50 is > 100 µg/mL.
As to `NC(=O)c1ncn([C@@H]2O[C@H](CO)[C@@H](O)[C@H]2O)n1` [Ribavirin, ribavirin], the IC50 in data set [3] (setting [11]) amounted to 55.1 µg/mL (≈ 226 µM); in [4] (setting [11]), 61.6 µg/mL (≈ 252 µM); in [2] it was 4.1 µg/mL (≈ 16.8 µM). Moreover, the inhibition at 10 µg/mL in [5] came to 74.2%; in data set [6] (setting [12]), 95.8%; with rotavirus (strain: OSU) (setting [10]), 82.3%; in data set [1] (setting [9]), 42.3%. For the same molecule, the “Inhibitory activity (%) (Mean ± S.D.)” value in data set [1] (setting [9]) came out at 42.32 ± 4.38%. Besides, the CC50 at 48 h in “in vitro [7]” and in “in vitro [8]” was > 100 µg/mL each time.
As to `CCOC(=O)C1=C[C@@H](OC(CC)CC)[C@H](NC(C)=O)[C@@H](N)C1` [Tamiflu, oseltamivir], the inhibition at 10 µg/mL was -9.78% in data set [5] and -1.43% in data set [6] (MDCK, 48 h). The “IC50 (concentration required for 50% inhibition of viruses)” value in [2] was “IC50 not attained even at the maximum dosage”.
As to `CC(=O)N[C@H]1[C@H]([C@H](O)[C@H](O)CO)OC(C(=O)O)=C[C@@H]1N=C(N)N` [Relenza, zanamivir], the values for the inhibition at 10 µg/mL (in data set [5]; in data set [6] (setting [12]); in the data set on rotavirus (strain: OSU) (setting [10])) were 52.7%, 3.4% and 0.5%, respectively. Moreover, the “IC50 (concentration required for 50% inhibition of viruses)” value in data set [2] is reported as “IC50 not attained even at the maximum dosage”.
As to `O=c1cc(-c2ccc(O)cc2)oc2cc(O)cc(O)c12` [Apigenin, apigenin], in data set [1] (setting [9]), the inhibition at 10 µg/mL was found to be 9.24%. This molecule also yielded a CC50 at 48 h in “in vitro [7]” of 50 µg/mL (≈ 185 µM). In data set [2], the IC50 worked out at 0.1 µg/mL (≈ 0.37 µM).
`C[C@@H]1O[C@@H](Oc2c(-c3ccc(O)c(O)c3)oc3cc(O)cc(O)c3c2=O)[C@H](O)[C@H](O)[C@H]1O` [Quercitrin, quercitrin]: in data set [1], the inhibition at 10 µg/mL was determined as 13.4%. The IC50 in [2] was > 100 µg/mL.
